# Reference: patent US20260241026A1, “THERAPEUTIC METHOD FOR LOW-DRUG-SENSITIVITY CANCERS BY ADMINISTRATION OF ANTI-MUC1 ANTIBODY-DRUG CONJUGATE” (priority 2023, published 2026)
# How the values were obtained:
# [1] = system: lung cancer PDX model (NIBIO-NS1); assay: Antitumor test in lung cancer patient-derived xenograft model NIBIO-NS1; assay type: in vivo, female nude mice
# From the text: NIBIO-NS1 was obtained as a lung cancer PDX model from the National Institute of Biomedical Innovation. A frozen tumor section of NIBIO-NS1 was thawed and subcutaneously transplanted to 5-week old female NSG mice (NOD. Cg-Prkdc Il2rg<tm1Wjl>/SzJ: purchased from Jackson Laboratory Japan, Inc.) using a trocar. Grown tumor was collected, cut into small pieces, and transplanted again to female nude mice (CAnN. Cg-Foxn1nu/CrlCrlj: purchased from Jackson Laboratory Japan, Inc.) using a trocar, followed by extended growth.
# The female nude mice with transplanted NIBIO-NS1 were grouped 10 days after transplantation when their average tumor volume became about 157 mm^3. […] Six mice per group were used in groups 1 and 2, and 12 mice were used in group 3.
# [2] = system: bladder cancer PDX model (NIBIO-K071); assay: Antitumor test in bladder cancer patient-derived xenograft model NIBIO-K071; assay type: in vivo, female nude mice
# From the text: NIBIO-[…] was obtained as a bladder cancer patient-derived xenograft model (PDX model) from the National Institute of Biomedical Innovation. A frozen tumor section of NIBIO-[…] was thawed and subcutaneously transplanted to 4- to 6-week old female NSG mice (NOD. Cg-Prkdc Il2rg<tm1Wjl>/SzJ: purchased from Charles River Laboratories Japan, Inc.) using a trocar. Grown tumor was collected, cut into small pieces, and transplanted again to female NSG mice or female nude mice (CAnN. Cg-Foxn1nu/CrlCrlj: purchased from Charles River Laboratories Japan, Inc.) using a trocar, followed by extended growth. TA-MUC1-, Nectin-4-, and TROP2-positive findings were confirmed in the tumor of this model by immunohistochemical staining (IHC). An estimated tumor volume (ETV) was calculated as described below. Estimated tumor volume (volume,mm^3)=Major axis (mm)×Minor axis (mm)^2/2 The female nude mice with transplanted NIBIO-[…] were grouped 25 days after transplantation when their average tumor volume became about 200 mm^3. […] ABS buffer was administered to a Vehicle administration group. Six mice per group were used in all the groups. After initial administration, body weights and tumor sizes were measured twice a week, and estimated tumor volumes were calculated.
# [3] = system: human breast cancer cell line HCC70; assay: Antitumor test in model with transplanted breast cancer cell line HCC70 (Example 3); assay type: in vivo, female nude mouse
# Protocol: The mice were grouped 18 days after transplantation when their average tumor volume became about 165 mm^3. […] ABS buffer was administered to a Vehicle administration group. Six mice per group were used in all the groups.
# [4] = 10 mg/kg, QW × two doses (Days 0, 7)
# [5] = Day 21, 10 mg/kg, QW × 2, intravenous
substance,measurement,setting,value
"datopotamab deruxtecan [TROP2-DXd ADC, reference compound]",tumor course after regrouping of the TROP2-DXd ADC administration group,"[1]; 10 mg/kg on Day 11 to tumors pre-treated with TROP2-DXd ADC, up to Day 31 (TA-MUC1-DXd ADC) or Day 21 (TROP2-DXd ADC)",grew continuously
same,tumor regression effect,"[1]; Day 11, 10 mg/kg on Day 0, NIBIO-NS1",no tumor regression
same,ETV (mm^3) Mean,"[1]; Day 11, 10 mg/kg, Day 0, intravenous, NIBIO-NS1",453 mm^3
"enfortumab vedotin [Nectin-4-MMAE ADC, reference compound]",tumor regression,"[2]; 3 mg/kg, QW × three doses (Days 0, 7, 14)",did not reach tumor regression
same,ETV (mm^3) Mean,"[2]; Day 21, 3 mg/kg, QW × 3, intravenous",772 mm^3
"sacituzumab govitecan [TROP2-SN38 ADC, reference compound]",tumor regression,[3]; [4],no tumor regression
same,ETV (mm^3) Mean,[3]; [5],361 mm^3
same,tumor regression,[2]; [4],did not reach tumor regression
same,ETV (mm^3) Mean,[2]; [5],383 mm^3
